# According to PubChem BioAssay (NCI):
# Values joined by “and” are separate entries in the source; they are usually repeats but may differ in a detail not shown here. Equal entries are not always repeated.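 Cultured in 96-well plates, cells were exposed to test compound for 48 hours across five concentrations. GI50 = concentration required for 50% inhibition of growth. TGI: total growth inhibition.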
# Tested on: MDA-MB-468 breast
# Assay: NCI tumour cell line growth inhibition, 48 h
Compound,GI50,TGI
NC(=O)c1c[nH]c2ncnc(N)c12,18.8 µM,90.1 µM
Nc1nc(N)c2cc(S(=O)(=O)c3ccc4ccccc4c3)ccc2n1,2.43 µM,> 100 µM
CS(=O)(=O)c1nccc(-c2c(-c3ccc(F)c(OCCc4ccccc4)c3)nc3sccn23)n1,2.57 µM,7.36 µM
COc1ccc(-c2nc3sccn3c2-c2ccnc(NCCNS(=O)(=O)c3ccc(C(F)(F)F)cc3)n2)cc1,1.19 µM,7.62 µM
Cc1ccc(NC(=S)NNC(=S)Nc2ccc(C)cc2)cc1,2.82 µM,7.58 µM
COc1ccc(N=Nc2ccc(O)c(=O)cc2)cc1,2.61 µM,18.7 µM
NS(=O)(=O)c1ccc(N=Nc2c(O)[nH]c3ccc(C(=O)NCCCn4ccnc4)cc23)cc1,> 25 µM,> 25 µM
CC1(C)N=C(N)N=C(N)N1c1ccc(OCC(=O)Nc2ccc(S(=O)(=O)F)cc2Cl)c(Cl)c1,1.84 µM,> 100 µM
O=C(/C=C(/C=C/c1cccc2[nH]ccc12)OB(F)F)/C=C/c1cccc2[nH]ccc12,0.473 µM,3.12 µM
COc1ccc2[nH]c(C(=O)OCc3ccc4c(Br)cc(Br)c(O)c4n3)cc2c1,0.822 µM,2.46 µM
COc1cccc(C(=O)NNc2nc(Cl)nc(N3CCN(C(c4ccccc4)c4ccccc4)CC3)n2)c1,2.4 µM,8.11 µM
CSC1=CC(=O)c2ccccc2C1=O,0.26 µM,1.09 µM
CC(C)C[C@H](NC(=O)[C@@H](Cc1ccccc1)n1ccc(Nc2ccccc2)cc1=O)B(O)O,0.236 µM,1.29 µM
CCN1C(=O)/C(=c2\sc3n(c2=O)C2C(NN=3)N(CC)C(=O)N2CC)c2ccccc21 (stereo not drawn),0.336 µM,8.33 µM
Cn1c2c(c3ccccc31)CCN1C[C@@H]3CCCC[C@H]3C[C@@H]21,1.77 µM,8.73 µM
CN1C(=O)C(N=Nc2ccc([N+](=O)[O-])cc2)SC1=S (stereo not drawn),4.33 µM and 9.92 µM,30.6 µM and 56.6 µM
CC[C@]12C=CCN3CC[C@@]4(c5ccc(OC)cc5N(C)[C@H]4[C@@](O)(C(=O)OC)[C@@H]1OC(=O)CCC(=O)O[C@H]1CC[C@H]4[C@@H]5CCC6=CC(=O)CC[C@@H]6[C@H]5CC[C@]14C)[C@@H]32,1.42 µM,5.9 µM
C#C[C@]1(O)CC[C@H]2[C@@H]3CC=C4c5sc(-c6ccc(C)cc6)nc5CC[C@]4(C)[C@H]3CC[C@@]21C,> 100 µM,> 100 µM
Cc1[nH]c(C(=O)Nc2cccc(OC3CCNCC3)c2)c(Cl)c1Cl,1.87 µM,3.68 µM
C=C(C(=O)c1ccccc1)C(NC(C)(C)C)c1ccccc1 (stereo not drawn),0.566 µM,1.96 µM
CC[C@]12C=CCN3CC[C@]4(C(=C(C(=O)OC)C1)Nc1cc5c(cc14)[C@@H]1[C@H](O5)[C@@H](O)[C@@]4(CC)CC(C(=O)OC)=C5Nc6ccccc6[C@@]56CCN1[C@@H]46)[C@@H]32,0.147 µM and 0.183 µM,1.54 µM and 1.62 µM
COc1ccc(OC)c(C2=C(c3cn(C)c4ccccc34)C(=O)NC2=O)c1,> 25 µM,> 25 µM
CC(=O)Oc1ccc(C2OC(c3ccc4ccccc4c3OC(C)=O)=NN2C(C)=O)c(OC(C)=O)c1 (stereo not drawn),0.401 µM,3.22 µM
O=C1/C(=C/c2ccc(Cl)cc2)CN(Cc2cn(CCCNc3ccnc4cc(Cl)ccc34)nn2)C/C1=C\c1ccc(Cl)cc1,1.4 µM,3.5 µM
COc1ccc(-c2cc(=O)c3c(OC)c4ccoc4c(/C=C/C=O)c3o2)cc1,3.58 µM,14.4 µM
Clc1nc(Cl)c2ncn(-c3ccccc3)c2n1,2.71 µM,8.39 µM
Nc1nc2ccc(CNc3ccc(C(=O)NC(CC(=O)O)C(=O)O)cc3)cc2c(=O)[nH]1 (stereo not drawn),9.09 µM,> 100 µM
COc1cc(/C=C2\CCC/C(=C\c3cc(CN4CCCC4)c(O)c(OC)c3)C2=O)cc(CN2CCCC2)c1O,1.7 µM,4.07 µM

Compound,GI50,TGI
CCc1ccc(Oc2c(-c3ccc(OCCc4cccc(C(F)(F)F)c4)cc3O)n[nH]c2C(F)(F)F)cc1,1.87 µM,7.96 µM
COc1cc(C)c(-c2ccc(OC)c(=O)cc2C)c(OC)c1OC,–,> 100 µM
COc1ccccc1CNCCCN1C(=O)c2ccc3c4c(ccc(c24)C1=O)C(=O)N(CCCNCCCCNCCCN)C3=O,0.131 µM,0.273 µM
CS(=O)(=O)Nc1cc(-c2ccc3ncc(C#N)c(Nc4ccc(F)c(Cl)c4)c3c2)cnc1Cl,0.0676 µM,0.396 µM
Cc1c(O)cccc1C(=O)N[C@@H](CSc1ccccc1)[C@H](O)CN1C[C@H]2CCCC[C@H]2C[C@H]1C(=O)NC(C)(C)C,3.89 µM,15.2 µM
C[C@@]12CC[C@@H](O)C[C@@H]1CC[C@H]1[C@H]2CC[C@@]2(C)[C@H](c3ccc(=O)oc3)CC[C@@]12O,0.0278 µM,0.0811 µM
c1cc[n+](Cc2c3ccccc3cc3c2ccc2ccccc23)cc1,0.426 µM,2.68 µM
C[n+]1cccc(NC(=O)c2ccc3ccc4ccc(C(=O)Nc5ccc[n+](C)c5)nc4c3n2)c1,0.252 µM,1.29 µM
CCCCCCCCCCCCCCCC(=O)NS(=O)(=O)OC[C@H]1O[C@@H](n2cnc3c(N)ncnc32)[C@H](O)[C@@H]1O,< 0.0328 µM,–
CCN1CCN(Cc2ccc(Nc3ncc(F)c(-c4cc(F)c5nc(C)n(C(C)C)c5c4)n3)nc2)CC1,6.95 µM,14 µM
CC(C)n1cc(-c2ccc3c(c2)N(C)CC3)c2c(NS(=O)(=O)c3ccn(C)n3)ccnc21,41.1 µM,> 100 µM
CCOc1cc(Cl)c(C(C)NC(=O)c2cccc(OC)c2)cc1OCC (stereo not drawn),3.38 µM,64.6 µM
Cc1nc2ccc(-n3ncc(C(=O)c4cc5ccccc5[nH]4)c3N)cc2[nH]1,12.5 µM,43.2 µM
O=C(O)c1ccc(CSc2nc3ccccc3[nH]2)cc1,> 100 µM,> 100 µM
O=C1c2ccccc2C(=O)c2c1oc1cc(O)c(Cl)cc21,1.13 µM,7.23 µM
Nc1c(C(=O)Nc2cccc(Cl)c2)sc2nc3c(cc12)C(O)CCC3 (stereo not drawn),0.257 µM,15.2 µM
COc1cc2c(Nc3ccc(-c4ccc(N)cc4)cc3)ncnc2c(OC)c1OC,11.2 µM,49 µM
CC1(C)CC[C@]23CC[C@]4(C)[C@H](CC[C@@H]5[C@@]6(C)CCCNC(C)(C)[C@@H]6CC[C@]54C)[C@H]2[C@H]1OC3,1.61 µM,3.45 µM
CS(=O)(=O)N1CCC(Nc2ncc(C(=O)c3c(F)cccc3F)c(N)n2)CC1,12.4 µM,> 25 µM
O=S(=O)(NCCNc1nccc(-c2c(-c3ccc(F)cc3)nc3sccn23)n1)c1ccc(O)cc1,3.37 µM,48.2 µM
COc1cccc2nc(Nc3cccc(NC(=O)c4ccc(N5CCN(C)CC5)c(C(F)(F)F)c4)c3)ccc12,1.11 µM,3.65 µM
ClC(Cl)c1nc(-c2ccco2)n2nc(-c3ccccc3)cc2n1,0.322 µM,1.15 µM
Cn1cc(-c2csc(-c3ccccc3)n2)c2cccnc21,14.2 µM,48.4 µM
Cc1ccc(C2=NN(c3ccc(S(=O)(=O)NC(=O)NCc4ccccc4)cc3)C(c3ccc(N(C)C)cc3)C2)c(C)c1 (stereo not drawn),2.36 µM,6.11 µM
CC(C)c1cnc(-c2cc(Cl)ccc2F)cc1Nc1ccncc1C(=O)NC(CO)CO,8.35 µM,32.7 µM
CC(C)[C@@]12C[C@@H](OC(=O)COC(=O)c3ccccc3)[C@@](C)(O1)[C@@H]1CC[C@@H](C)[C@H]1[C@@H]2OC(=O)/C=C/c1ccccc1,> 81.2 µM,> 100 µM
CCN1CCN(Cc2ccc(NC(=O)Nc3nc(-c4cc(OC)c(OC)c(OC)c4)cs3)cc2C(F)(F)F)CC1,1.43 µM,3.03 µM
